In PubChem BioAssay (NCI):
Values after ≈ are worked out from the molar mass of the structure shown.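 Five compound concentrations were applied to cells in 96-well plates for 48 hours; endpoints were derived by simple linear interpolation of the resulting dose-response curve. GI50 is the concentration that inhibits growth by half. TGI denotes the concentration required for complete inhibition of growth.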

What was measured:
Assay in all cases: inhibition of tumour cell growth, NCI panel, 48 h
[1] = test system: OVCAR-8 ovarian
[2] = test system: SW-620 colon
[3] = test system: SN12C renal
[4] = test system: SK-MEL-2 melanoma
[5] = test system: SNB-75 CNS
[6] = test system: KM12 colon
[7] = test system: NCI-H522 lung
[8] = test system: ACHN renal
[9] = test system: HCT-116 colon
[10] = test system: HOP-92 NSCLC
[11] = test system: A498 renal
[12] = test system: M14 melanoma
[13] = test system: UACC-257 melanoma
[14] = test system: OVCAR-4 ovarian
[15] = test system: SK-MEL-5 melanoma
[16] = test system: HT29 colon
[17] = test system: OVCAR-3 ovarian
[18] = test system: HS 578T breast
[19] = test system: SR leukemia
[20] = test system: SF-295 CNS
[21] = test system: TK-10 renal
[22] = test system: MALME-3M melanoma
[23] = test system: NCI-H460 lung
[24] = test system: EKVX NSCLC
[25] = test system: A549 NSCLC
[26] = test system: UO-31 renal
[27] = test system: RXF 393 renal
[28] = test system: HL-60(TB) leukemia
[29] = test system: CCRF-CEM leukemia
[30] = test system: BT-549 breast
[31] = test system: K-562 leukemia
[32] = test system: SF-268 CNS
[33] = test system: LOX IMVI melanoma
[34] = test system: MOLT-4 leukemia
[35] = test system: NCI-H23 lung
[36] = test system: T-47D breast
[37] = test system: IGROV1 ovarian
[38] = test system: SK-OV-3 ovarian
[39] = test system: RPMI-8226 leukemia
[40] = test system: COLO 205 colon
[41] = test system: PC-3 prostate
[42] = test system: MDA-MB-435
[43] = test system: HCT-15 colon
[44] = test system: SNB-19 CNS
[45] = test system: CAKI-1 renal
[46] = test system: OVCAR-5 ovarian
[47] = test system: 786-0 renal
[48] = test system: SK-MEL-28 melanoma
[49] = test system: HOP-62 NSCLC
[50] = test system: HCC-2998 colon
[51] = test system: SF-539 CNS
[52] = test system: UACC-62 melanoma
[53] = test system: MDA-N
[54] = test system: MDA-MB-231 breast
[55] = test system: DU-145 prostate
[56] = test system: NCI-H226 lung
[57] = test system: MCF7 breast
[58] = test system: NCI/ADR-RES ovarian
[59] = test system: U251 CNS

NC(Cc1cccnn1)C(=O)O (configuration not stated)
TGI [1]: > 100 µM
TGI [2]: > 100 µM
TGI [3]: > 100 µM
TGI [4]: > 100 µM
TGI [5]: > 100 µM
TGI [6]: > 100 µM
TGI [7]: > 100 µM
TGI [8]: > 100 µM
TGI [9]: > 100 µM
TGI [10]: > 100 µM
TGI [11]: > 100 µM
TGI [12]: > 100 µM
TGI [13]: > 100 µM
TGI [14]: > 100 µM
TGI [15]: > 100 µM
TGI [16]: > 100 µM
TGI [17]: > 100 µM
TGI [18]: > 100 µM
TGI [19]: > 100 µM
TGI [20]: > 100 µM
TGI [21]: > 100 µM
TGI [22]: > 100 µM
TGI [23]: > 100 µM
TGI [24]: > 100 µM
TGI [25]: > 100 µM
TGI [26]: > 100 µM
TGI [27]: > 100 µM
TGI [28]: > 100 µM
TGI [29]: > 100 µM
TGI [30]: > 100 µM
TGI [31]: > 100 µM
TGI [32]: > 100 µM
TGI [33]: > 100 µM
TGI [34]: > 100 µM
TGI [35]: > 100 µM
TGI [36]: > 100 µM
TGI [37]: > 100 µM
TGI [38]: > 100 µM
TGI [39]: > 100 µM
TGI [40]: > 100 µM
TGI [41]: > 100 µM
TGI [42]: > 100 µM
TGI [43]: > 100 µM
TGI [44]: > 100 µM
TGI [45]: > 100 µM
TGI [46]: > 100 µM
TGI [47]: > 100 µM
TGI [48]: > 100 µM
TGI [49]: > 100 µM
TGI [50]: > 100 µM
TGI [51]: > 100 µM
TGI [52]: > 100 µM
TGI [53]: > 100 µM
TGI [54]: > 100 µM
TGI [55]: > 100 µM
TGI [56]: > 100 µM
TGI [57]: > 100 µM
TGI [58]: > 100 µM
TGI [59]: > 100 µM

CNCC(=O)NC(CO)C(=O)NC(CO)C(=O)NC1C(C(N)=O)OC(n2ccc(N)nc2=O)C(O)C1O (configuration not stated)
GI50 [1]: 12.4 µg/mL (≈ 23.3 µM)
TGI [1]: > 50 µg/mL
GI50 [2]: > 50 µg/mL
TGI [2]: > 50 µg/mL
GI50 [3]: 9.89 µg/mL (≈ 18.6 µM)
TGI [3]: > 50 µg/mL
GI50 [4]: 4.58 µg/mL (≈ 8.63 µM)
TGI [4]: 23.7 µg/mL
GI50 [5]: 1.27 µg/mL (≈ 2.4 µM)
TGI [5]: 8.92 µg/mL
GI50 [6]: 20.3 µg/mL (≈ 38.3 µM)
TGI [6]: > 50 µg/mL
GI50 [7]: 1.85 µg/mL (≈ 3.49 µM)
TGI [7]: 8.98 µg/mL
GI50 [8]: 5.15 µg/mL (≈ 9.71 µM)
TGI [8]: > 50 µg/mL
GI50 [9]: 4.68 µg/mL (≈ 8.81 µM)
TGI [9]: 40.3 µg/mL
GI50 [10]: 4.83 µg/mL (≈ 9.1 µM)
TGI [10]: > 50 µg/mL
GI50 [11]: 13 µg/mL (≈ 24.5 µM)
TGI [11]: > 50 µg/mL
GI50 [12]: 9.22 µg/mL (≈ 17.4 µM)
TGI [12]: 35.3 µg/mL
GI50 [13]: 13.7 µg/mL (≈ 25.9 µM)
TGI [13]: > 50 µg/mL
GI50 [14]: 0.495 µg/mL (≈ 0.934 µM)
TGI [14]: 3.41 µg/mL
GI50 [15]: 16.1 µg/mL (≈ 30.3 µM)
TGI [15]: > 50 µg/mL
GI50 [16]: 25.9 µg/mL (≈ 48.8 µM)
TGI [16]: > 50 µg/mL
GI50 [17]: 8.43 µg/mL (≈ 15.9 µM)
TGI [17]: 29.6 µg/mL
GI50 [18]: 1.21 µg/mL (≈ 2.29 µM)
TGI [18]: 4.42 µg/mL
GI50 [19]: 16.8 µg/mL (≈ 31.7 µM)
TGI [19]: > 50 µg/mL
GI50 [20]: 2.78 µg/mL (≈ 5.25 µM)
TGI [20]: 17 µg/mL
GI50 [21]: 11 µg/mL (≈ 20.7 µM)
TGI [21]: > 50 µg/mL
GI50 [22]: 0.225 µg/mL (≈ 0.424 µM)
TGI [22]: 7.58 µg/mL
GI50 [23]: 3.39 µg/mL (≈ 6.38 µM)
TGI [23]: 31.3 µg/mL
GI50 [24]: 7.9 µg/mL (≈ 14.9 µM)
TGI [24]: 31.8 µg/mL
GI50 [25]: 17 µg/mL (≈ 32.1 µM)
TGI [25]: > 50 µg/mL
GI50 [26]: 12.4 µg/mL (≈ 23.3 µM)
TGI [26]: > 50 µg/mL
GI50 [27]: 6.4 µg/mL (≈ 12.1 µM)
TGI [27]: 35.4 µg/mL
GI50 [28]: > 50 µg/mL
TGI [28]: > 50 µg/mL
GI50 [29]: > 50 µg/mL
TGI [29]: > 50 µg/mL
GI50 [30]: 7.25 µg/mL (≈ 13.7 µM)
TGI [30]: 25.3 µg/mL
GI50 [31]: > 50 µg/mL
TGI [31]: > 50 µg/mL
GI50 [32]: 1.95 µg/mL (≈ 3.67 µM)
TGI [32]: 15.6 µg/mL
GI50 [33]: 2.43 µg/mL (≈ 4.59 µM)
TGI [33]: 15.9 µg/mL
GI50 [34]: > 50 µg/mL
TGI [34]: > 50 µg/mL
GI50 [35]: 8.49 µg/mL (≈ 16 µM)
TGI [35]: 48.8 µg/mL
GI50 [36]: > 50 µg/mL
TGI [36]: > 50 µg/mL
GI50 [37]: 3.33 µg/mL (≈ 6.27 µM)
TGI [37]: 26.4 µg/mL
GI50 [38]: 7.66 µg/mL (≈ 14.4 µM)
TGI [38]: 41.7 µg/mL
GI50 [39]: > 50 µg/mL
TGI [39]: > 50 µg/mL
GI50 [40]: > 50 µg/mL
TGI [40]: > 50 µg/mL
GI50 [41]: 10.2 µg/mL (≈ 19.2 µM)
TGI [41]: 47.5 µg/mL
GI50 [42]: 41.9 µg/mL (≈ 78.9 µM)
TGI [42]: > 50 µg/mL
GI50 [43]: 15.8 µg/mL (≈ 29.9 µM)
TGI [43]: > 50 µg/mL
GI50 [44]: 6.5 µg/mL (≈ 12.3 µM)
TGI [44]: 45.1 µg/mL
GI50 [45]: 15.7 µg/mL (≈ 29.6 µM)
TGI [45]: > 50 µg/mL
GI50 [46]: 9.43 µg/mL (≈ 17.8 µM)
TGI [46]: > 50 µg/mL
GI50 [47]: 12.5 µg/mL (≈ 23.5 µM)
TGI [47]: > 50 µg/mL
GI50 [48]: 21.7 µg/mL (≈ 41 µM)
TGI [48]: > 50 µg/mL
GI50 [49]: 6.44 µg/mL (≈ 12.1 µM)
TGI [49]: 32.3 µg/mL
GI50 [50]: 20.6 µg/mL (≈ 38.8 µM)
TGI [50]: > 50 µg/mL
GI50 [51]: 5.01 µg/mL (≈ 9.45 µM)
TGI [51]: 28.7 µg/mL
GI50 [52]: 2.88 µg/mL (≈ 5.43 µM)
TGI [52]: 16.8 µg/mL
GI50 [53]: 12.4 µg/mL (≈ 23.3 µM)
TGI [53]: > 50 µg/mL
GI50 [54]: > 50 µg/mL
TGI [54]: > 50 µg/mL
GI50 [55]: 13 µg/mL (≈ 24.5 µM)
TGI [55]: > 50 µg/mL
GI50 [56]: 1.65 µg/mL (≈ 3.11 µM)
TGI [56]: 13.9 µg/mL
GI50 [57]: > 50 µg/mL
TGI [57]: > 50 µg/mL
GI50 [58]: 5.79 µg/mL (≈ 10.9 µM)
TGI [58]: 28 µg/mL
GI50 [59]: 10.9 µg/mL (≈ 20.5 µM)
TGI [59]: > 50 µg/mL
